The values below come from patent US4920124A, “N-substituted 3,4-dihydropyrimidine compounds as agents for treating disorders of cardiovascular system” (Suntory Limited, priority 1987, dated 1990).

SMILES strings stand for the structures.

In the first test the test system is vertebral artery. As to the kind of experiment: time course of changes in the vascular resistance of the vertebral artery in anesthetized dogs (T1/2). The test is classed as in vivo, dog. Conditions: injected with the ED30 doses. Here is the method: Adult dogs of either sex (7~14 kg in body weight) were anesthetized with at first thiopental sodium (35 mg/kg, intraperitoneal), anesthetized with urethane (400 mg/kg, intravenous) and chloralose (60 mg/kg, intravenous) and kept under artificial respiration throughout the experiment. After thoracotomy at the left first intercostal space, the vertebral artery was exposed and blood flow was measured with intracorporeal flow probe connected to an electromagnetic flowmeter (MF-27, Nihon Kohden).
At the same time, continuous measurement of the following parameters was made: systemic blood pressure (mean pressure) at the right femoral artery, the limb lead II ECG, the heart rate with a tachometer triggered by the R wave of ECG, and the vascular resistance determined by loading a electronic divider unit (EO-601 G, Nihon Kohden) with the mean values of blood pressure and vertebral artery blood flow. All of these parameters were recorded simultaneously on a polygraph (RM-600, Nihon Kohden).
All the test compounds were injected through a cannula inserted into the femoral vein.
Selected compounds of the present invention were tested for their ability to reduce the resistance of the vertebral artery in anesthetized dogs.
The animals were injected with the ED30 doses of test compounds and the time course of changes in the vascular resistance were studied in the same manner as in Example 26. The time course of changes can be as shown schematically in FIG. 1. From the curve shown in FIG. 1, the values of T1/2 (min) (the time to reach 50% of the resistance drop) were calculated. The results are shown in Table 3, in which the compound numbers correspond to the Example numbers.
For the compound `CC1=NC(C)=C(C(=O)OC(C)C)C(c2ccccc2[N+](=O)[O-])N1C(=O)OCCN(Cc1ccccc1)Cc1c(Cl)cccc1Cl` (centres unmarked) [Example 25], the “T1/2 (the time to reach 50% of the resistance drop)” value was 11.7 min.

For the compound `CC1=NC(C)=C(C(=O)OC(C)C)C(c2ccccc2[N+](=O)[O-])N1C(=O)OCCN(Cc1ccccc1)Cc1ccc(C(F)(F)F)cc1` (centres unmarked) [Example 16], the “T1/2 (the time to reach 50% of the resistance drop)” value is given as 7.9 min.

As for `CC1=NC(C)=C(C(=O)OC(C)C)C(c2ccccc2[N+](=O)[O-])N1C(=O)OCCN(Cc1ccccc1)Cc1cccc(Cl)c1` (centres unmarked) [Example 14], the “T1/2 (the time to reach 50% of the resistance drop)” value is 10.6 min.

With `COc1ccc(CN(CCOC(=O)N2C(C)=NC(C)=C(C(=O)OC(C)C)C2c2ccccc2[N+](=O)[O-])Cc2ccc(Cl)c(Cl)c2)cc1` (centres unmarked) [Example 21], the “T1/2 (the time to reach 50% of the resistance drop)” value worked out at 20.0 min.

Take `CC1=NC(C)=C(C(=O)OC(C)C)C(c2ccccc2[N+](=O)[O-])N1C(=O)OCCN(Cc1ccccc1)Cc1ccc(Cl)cc1Cl` (centres unmarked) [Example 15]: the “T1/2 (the time to reach 50% of the resistance drop)” value was more than 20.0 min.

For the compound `CC1=NC(C)=C(C(=O)OC(C)C)C(c2ccccc2[N+](=O)[O-])N1C(=O)OCCN(Cc1ccccc1)Cc1ccc(Cl)c(Cl)c1` (centres unmarked) [Example 1, 3-[2-{N-benzyl-N-(3,4-dichlorobenzyl)amino}ethoxycarbonyl]-5-isopropoxycarbonyl-2,6-dimethyl-4-(2-nitrophenyl)-3,4-dihydropyrimidine], the “T1/2 (the time to reach 50% of the resistance drop)” value was more than 25.0 min.

On to `CC1=NC(C)=C(C(=O)OC(C)C)C(c2cccc([N+](=O)[O-])c2)N1C(=O)OCCN(Cc1ccccc1)Cc1ccc(Cl)c(Cl)c1` (centres unmarked) [Example 24, 3-[2-{N-benzyl-N-(3,4-dichlorobenzyl)amino}ethoxycarbonyl]-5-isopropoxycarbonyl-2,6-dimethyl-4-(3-nitrophenyl)-3,4-dihydropyrimidine], for which the “T1/2 (the time to reach 50% of the resistance drop)” value stood at 16.0 min.

In the case of `CC1=NC(C)=C(C(=O)OC(C)C)C(c2ccccc2[N+](=O)[O-])N1C(=O)OCCN(Cc1ccc(Cl)cc1)Cc1ccc([N+](=O)[O-])cc1` (centres unmarked) [Example 20], the “T1/2 (the time to reach 50% of the resistance drop)” value stood at 10.2 min.

As for `CC1=NC(C)=C(C(=O)OC(C)C)C(c2ccccc2[N+](=O)[O-])N1C(=O)OCCN(Cc1ccc(Cl)cc1)Cc1cccc(Cl)c1` (centres unmarked) [Example 22], the “T1/2 (the time to reach 50% of the resistance drop)” value is recorded as 19.5 min.

In the case of `COc1ccc(CN(CCOC(=O)N2C(C)=NC(C)=C(C(=O)OC(C)C)C2c2ccccc2[N+](=O)[O-])Cc2ccccc2)cc1` (centres unmarked) [Example 2], the “T1/2 (the time to reach 50% of the resistance drop)” value came out at 8.2 min.

The test system of the next test is vertebral artery. Description: vascular resistance of the vertebral artery in anesthetized dogs (ED30). Type of test: in vivo, dog. Conditions: Canis lupus familiaris, intravenous injection.
The compound `CC1=NC(C)=C(C(=O)OC(C)C)C(c2ccccc2[N+](=O)[O-])N1C(=O)OCCN(Cc1ccccc1)Cc1ccc(F)cc1` (centres unmarked) [Example 3] displayed an ED30 of 2.6 µg/kg.

`CC1=NC(C)=C(C(=O)OC(C)C)C(c2ccccc2[N+](=O)[O-])N1C(=O)OCCN(Cc1ccccc1)Cc1ccc(C)cc1` (centres unmarked) [Example 5] yielded an ED30 of 2.8 µg/kg.

Take `COc1cccc(CN(CCOC(=O)N2C(C)=NC(C)=C(C(=O)OC(C)C)C2c2ccccc2[N+](=O)[O-])Cc2ccccc2)c1` (centres unmarked) [Example 10]: the ED30 stood at 1.8 µg/kg.

In turn, `CC1=NC(C)=C(C(=O)OC(C)C)C(c2ccccc2[N+](=O)[O-])N1C(=O)OCCN(Cc1ccccc1)Cc1ccc(Cl)c(Cl)c1` (centres unmarked) [Example 1, 3-[2-{N-benzyl-N-(3,4-dichlorobenzyl)amino}ethoxycarbonyl]-5-isopropoxycarbonyl-2,6-dimethyl-4-(2-nitrophenyl)-3,4-dihydropyrimidine] registered an ED30 of 2.1 µg/kg.

The compound `CC1=NC(C)=C(C(=O)OC(C)C)C(c2ccccc2[N+](=O)[O-])N1C(=O)OCCN(Cc1ccccc1)Cc1ccc(Cl)cc1` (centres unmarked) [Example 4] registered an ED30 of 2.9 µg/kg.

Compound `COc1ccc(CN(CCOC(=O)N2C(C)=NC(C)=C(C(=O)OC(C)C)C2c2ccccc2[N+](=O)[O-])Cc2ccccc2)cc1` (centres unmarked) [Example 2] gave an ED30 of 1.8 µg/kg.

On to `CC1=NC(C)=C(C(=O)OC(C)C)C(c2ccccc2[N+](=O)[O-])N1C(=O)OCCN(Cc1ccccc1)Cc1cccc(F)c1` (centres unmarked) [Example 11], for which the ED30 was determined as 2.1 µg/kg.

`CC1=NC(C)=C(C(=O)OC(C)C)C(c2ccccc2[N+](=O)[O-])N1C(=O)OCCN(Cc1ccccc1)Cc1ccccc1F` (centres unmarked) [Example 9]: the ED30 worked out at 2.3 µg/kg.

`CC1=NC(C)=C(C(=O)OC(C)C)C(c2ccccc2[N+](=O)[O-])N1C(=O)OCCN(Cc1ccccc1)Cc1ccccc1Cl` (centres unmarked) [Example 13]: the ED30 amounted to 4.7 µg/kg.

In turn, `CC1=NC(C)=C(C(=O)OC(C)C)C(c2ccccc2[N+](=O)[O-])N1C(=O)OCCN(Cc1ccc(F)cc1)Cc1ccc(F)cc1` (centres unmarked) [Example 6] returned an ED30 of 1.3 µg/kg.
